{"source": "paper PMC11921695", "about": "(BMC Cancer, 2025)", "key": {"[1]": {"system": "patients with HIV-associated KS", "assay": "Phase I 3 + 3 dose escalation: dose limiting toxicity, MTD/RP2D", "format": "in vivo, human", "conditions": "for occurrence of DLT: cycle 1", "experimental": "The trial used a standard 3 + 3 rule-based dose escalation algorithm with four pre-defined dose levels. […] A dose of 75 mg once daily (od) provided a dose level below the starting dose should de-escalation be required.\nThe aim of the phase I component of the trial was to determine the maximum tolerated dose (MTD) of selumetinib in combination with ART, which was defined as the highest dose producing one or fewer DLT in six patients. This dose was defined as the recommended phase II dose (RP2D) for the subsequent phase II component of the trial. Patients recruited to phase I who received the RP2D as their initial dose were included in the phase II population for response analysis. Having completed six cycles of treatment, patients who responded to treatment were permitted to continue selumetinib with ART at the discretion of the treating physician. Patients concurrently received best supportive therapy according to institutional guidelines.\nThe occurrence of DLTs was used to evaluate the safety of each dose level and thereby determine the MTD which defined the RP2D.\n• Haematological. • Absolute neutrophil count (ANC) < 1.0 × 10^9/L. • Febrile neutropenia (ANC < 1.0 × 10^9/L, fever ≥ 38 °C). • Platelets < 50 × 10^9/L. • Bleeding thought to be due to thrombocytopenia. • Non-haematological. • Diarrhoea ≥ grade 3 despite optimal loperamide use. • Rash ≥ grade 3. • Any grade 2 toxicity unacceptable to the patient that required a dose reduction. • Missing > 30% of treatment doses for toxicity reasons. • Any other grade 3 or 4 effects thought to be treatment related. • HIV control. • Clinically necessary change in ART drug levels due to detrimental alteration in HIV viral load and/or CD4 cell count."}, "HIV-1": {"system": "HIV-1", "assay": "HIV control: HIV-1 viral load", "format": "in vivo, human", "conditions": "during the trial, patients receiving selumetinib + ART", "experimental": "HIV control was assessed by plotting longitudinal HIV-1 viral load and CD4 cell counts over time for the per-protocol population. Due to missing data at the pre-treatment cycle 1 […] visit, the CD4 cell counts from the screening visit were used as the baseline comparator. Paired t-tests were done to test the difference between CD4 cell counts at screening, cycle 3 day 22 and cycle 6 day 22. Due to multiple testing, a Bonferroni correction was applied to the significance threshold, calculated as 0.05 ÷ 2 = 0.025.\nHIV-1 viral load and CD4 counts were measured as per standard of care at hospital sites. To measure the concentration of angiogenesis markers, 8.5 ml blood was collected in BD vacutainer no-additive serum tubes. Samples were kept at room temperature for 30 minutes before centrifugation at 2000 g for 20 minutes at room temperature. Serum samples were then stored at -80 °C prior to analysis. Serum Ang-1, Ang-2 and TIE levels were assessed using commercial ELISAs (Thermo Fisher Scientifc hAng-1 (EHANGPT1), R&D DuoSet Ang-2 (DY623), eBioscience hTIE2 (BMS2042)), according to manufacturer instructions at laboratories at the University of Sheffield."}}, "note": "Where “and” joins values, the source holds several entries; their conditions need not be identical. Equal entries are not always repeated."}
{"compound": "Cn1cnc2c(F)c(Nc3ccc(Br)cc3Cl)c(C(=O)NOCCO)cc21", "note": "[selumetinib, 6-(4-Bromo-2-chloro-phenylamino)-7-fluro-3-methyl-3 H-benzoimidazole-5-carboxylic acid (2-hydroxy-ethoxy)-amide hydrogen sulphate]", "values": [{"measurement": "nature of the DLT", "setting": "[1]; 75 mg bd, single event, possibly related, resolved with no sequelae", "result": "asymptomatic concurrent increase in serum amylase and raised eosinophils, both grade 3"}, {"measurement": "occurrence of DLT", "setting": "[1]; four patients starting 50 mg bd", "result": "None"}, {"measurement": "maximum tolerated dose (MTD) / recommended phase II dose (RP2D)", "setting": "[1]; selumetinib orally in combination with ART, highest dose producing one or fewer DLT in six patients", "result": 75, "unit": "mg bd"}, {"measurement": "occurrence of DLT", "setting": "[1]; six phase I patients starting 75 mg bd", "result": "one and 1 out of 6"}, {"measurement": "HIV-1 viral load", "setting": "HIV-1", "result": "remained undetectable"}]}
